Measured values: patent publication US11963939B2, “Use of N-acetylcysteine to treat central nervous system disorders” (Neuronasal, Inc., priority 2017, dated 2024)

Legend:
Chac1 = Chac1 gene expression in ICH mice by quantitative RT-PCR; format: in vivo, mouse; details: ICH mice after NAC treatment
Description: Total glutathione levels were unchanged after NAC treatment in ICH mice. […] FIG. 29 illustrates an experimental design to study the effect of NAC on total glutathione levels in the striatum of a collagenase infusion mouse model of ICH. […] FIG. 31 illustrates that ICH-induced ATF4 dependent Chac1 degraded glutathione to 5-oxoproline.

[1] = Total iron levels in brain of ICH mice by X-ray fluorescence; format: in vivo, mouse; details: 7 days
Description: In vivo metal distribution imaging analysis by X-ray fluorescence: Seven days following collagenase-induced ICH, mice were euthanized and perfused with trace metal-free PBS. The brains were removed from the mice and flash frozen. Tissue samples were cut into 20 μm-thick sections and deposited onto 4 μm-thick Ultralene® films. The iron and zinc contents of the tissue samples were imaged using X-ray fluorescence microscopy (XFM). X-ray fluorescence spectra were collected using an X-ray excitation energy of 11 keV and a beam size of 9 μm (vertical)×17 μm (horizontal) in 15-μm steps, with an integration time of 7 sec/pixel. The intensity for each metal was quantified by integrating the area under the curve for the respective peak in the XRF spectrum (iron Kα=6405 eV and zinc Kα=8637 eV).
National Institute of Standards and Technology thin film standard reference materials 1832 and 1833 were used to calculate concentrations and to normalize for any differences between the multiple beam time runs required to collect the data. Molar concentrations were determined by dividing the […] values by the product of the volume of X-ray beam on the sample (area×thickness of the sample), the density of tissue (estimated to be 0.9 g/cm^3), and the molecular weight of the element.
The ability of NAC to affect total metal levels in the brain was evaluated. […]

[2] = tested on: collagenase-induced mouse model of ICH; assay: In vivo collagenase-induced mouse model of ICH (Fluoro-Jade staining, corner task, adhesive tape removal task, hematoma size)
Experimental: In vivo collagenase-induced mouse model of ICH: Male C57BL/6 mice (8 to 10 weeks of age) or mice (10 to 12 weeks of age) were anesthetized with isoflurane (2% to 5%) and placed on a stereotaxic frame. During the procedure, the animal's body temperature was maintained at 37° C. with a homeothermic blanket. 1 mL of collagenase (0.075 IU) was infused into the right striatum at a flow rate of 0.120 μL/min using a Nanomite® syringe pump and a syringe. Relative to the bregma point, the stereotaxic coordinates of the injection were: lateral, −0.20; anteroposterior, 0.62; and dorsoventral, −0.40. In control animals, 1 mL of saline was infused. The treatment group received NAC (75 mg/kg or 300 mg/kg in normal saline, I.P.) once a day for 7 days starting at 2 h after collagenase infusion. For combinatorial studies, NAC (40 mg/kg, I.P.) and PGE 2 (10 μM, ICV) were administered to the mice 2 h after the collagenase injection, and then NAC (40 mg/kg) was administered once daily for 7 days. The control groups received the vehicle (normal saline) alone. The animals were randomized to sham or ICH groups. The identities of the mice that received vehicle or NAC were masked to surgeons who performed the experiments. […] Proper postoperative care was provided until the animals recovered completely.
Behavioral analysis: The corner task assessed integrated sensorimotor function in the stimulation of vibrissae (sensory neglect) and rearing (motor response). Mice were placed between two cardboard pieces that formed a corner with a 30° angle. While maintaining the 30° angle, the boards were gradually moved toward the mouse until the mouse approached the corner, reared upward, and turned 180° to face the open end. The direction (left or right) in which the mouse turned was recorded for each trial. Ten trials were performed for each mouse.
For the sensory neglect task (adhesive tape removal task), adhesive tape was placed on the planter region of the forward paw (right and left) of each mouse. The time from which the tape was applied to when the mouse successfully removed the tape was recorded for each paw. A maximum of 300 s for each paw was allowed.
Fluoro-Jade® B staining: Neurodegeneration of cells was assessed in mice with collagenase-induced ICH using Fluoro-Jade® B staining. 40 μM brain sections were mounted on gelatin-coated slides and dried at room temperature overnight. The sections were immersed in a graded series of alcohol solutions before being immersed in a 0.06% potassium permanganate (KMnO4) solution for 15 min. Sections were washed with water before being immersed in a 0.001% Fluoro-Jade® staining solution with gentle shaking in the dark for 30 min. The sections were then washed with water and dried overnight at room temperature in the dark before being dehydrated and coverslipped with DPX. Fluoro-Jade® B staining was examined within perihematoma or hematoma regions using a fluorescence microscope. Quantification of Fluoro-Jade® B staining was performed using three brain sections (anterior to posterior of hematoma) using Metamorph analysis.
The vehicle or NAC was then administered daily up to 7 days following the ictus. Neuronal loss was determined using a non-specific marker of neurodegeneration, Fluoro-Jade® staining. […] Mouse behavior was assessed using a corner task (spatial neglect) and an adhesive tape removal task (sensory neglect). Mouse behavior was assessed on day 1, 3, and 7 after the induction of ICH.

ALOX AP = ALOX AP mRNA levels in hemin-treated primary cortical neurons (RT-PCR); format: cell-based, mouse; details: NAC 1 mM
Experimental: Quantitative real-time PCR: Total RNA was prepared using a NucleoSpin® RNA II kit. Duplex real-time PCR reactions were performed with gene expression assays using 6-carboxyfluorescein-labeled probes for ALOX5 (Mm 01182747_m1) and ALOX5AP (Mm 01218551_m1). Expression levels were normalized to β-actin gene expression levels, which were determined with a VIC™-labeled probe. All experiments were performed using a real-time PCR system.
The abilities of hemin and NAC to induce increases in ALOX5 and ALOX AP mRNA levels were examined. […] Consistent with the protein data (FIG. 17), hemin induced increases in ALOX AP and ALOX5 mRNA levels in a time-dependent manner.

total glutathione = assay: Total glutathione levels in neurons by HPLC; format: cell-based, mouse; details: 0.1 or 1.0 mM NAC, presence or absence of hemin
Description: Cysteine is the rate-limiting precursor for the synthesis of glutathione with γ-glutamylcysteine synthetase and glutathione synthetase. NAC undergoes hydrolysis to liberate cysteine, which is transported by the alanine-serine cysteine (ASC) system. To determine whether NAC-induced protection from heme requires glutathione, glutathione synthesis was inhibited using buthionine sulfoximine (BSO), a selective inhibitor of γ-glutamylcysteine synthetase, the rate limiting step in glutathione synthesis. The necessity of a NAC-induced increase in glutathione, and whether NAC-induced protection could be abrogated were evaluated. A reduction in glutathione levels was measured using HPLC. […] In the presence of hemin, the absolute levels of glutathione were reduced. […] Significance was determined by two-way ANOVA followed by Bonferroni's comparison test, from three independent experiments.

[3] = NAC 40 mg/kg i.p. and/or PGE2 10 μM ICV, days 1, 3, 7

Structure (SMILES): CC(=O)N[C@@H](CS)C(=O)O [NAC, N-acetylcysteine]
- ATF4-regulated Chac1 (Chac1): decreased after NAC treatment
- Iron levels and iron distribution in brain following ICH [1]: no effect on iron levels or iron distribution
- Lesion volume and functional recovery (ICH model of rats; 40 mg/kg or 75 mg/kg, 2 h post-ICH): not effective in reducing lesion volume or improving functional recovery
- Toxicity of higher doses (ICH model of rats; 300 mg/kg): caused significant toxicity in rats, including paralytic ileus and/or death
- Highest dose tolerated without toxicity (ICH model of rats; ICH model): 40 mg/kg
- Hematoma size by light microscopy ([2]; 75 mg/kg or 300 mg/kg NAC vs control ICH group): No significant difference
- Adhesive tape removal task (sensory neglect) ([2]; 300 mg/kg NAC, days 1, 3, 7): improvements in sensory neglect were observed
- Corner turn task deficits (spatial neglect) ([2]; 300 mg/kg NAC, days 1, 3, 7): corrected by administration of 300 mg/kg NAC
- Sensory neglect (adhesive tape removal task) behavioral deficits [2, 3]: no effect
- Spatial neglect (corner task) behavioral deficits [2, 3]: no effect
- Neuronal degeneration in perihematomal regions (Fluoro-Jade staining) ([2]; NAC 40 mg/kg i.p. daily 7 days and/or dmPGE2 10 μM ICV 2 h post-injury): no significant effect
- Neuronal degeneration in perihematomal regions (Fluoro-Jade staining) ([2]; NAC 300 mg/kg I.P. daily from 2 h post-ICH, day 7): reduced neuronal degeneration in perihematomal regions
- Collagenase activity by hematoma size ([2]; NAC 300 mg/kg, 24 h after collagenase injection): did not inhibit or affect collagenase activity
- Hemin-induced ALOX AP expression (ALOX AP): blocked the expression of ALOX AP
- Total glutathione levels in neurons (total glutathione): dose-dependently increased the total glutathione levels
